Source: EP1277738B1, “CONDENSED HETEROARYL DERIVATIVES” (Astellas Pharma Inc., priority 2000, dated 2001)

molecular target: PI3K (p110α subtype) (Bos taurus, UniProt P32871); assay: Inhibition of PI3K (p110α subtype); assay type: biochemical; conditions: bovine p110α from baculovirus expression system; PI substrate, [γ-32P] ATP, 37°C for 15 minutes
Experimental: Test Example 1 Inhibition of PI3K (p110α subtype)
Inhibition was determined using enzyme (bovine p110α) prepared in the baculovirus expression system. Bovine p110 was prepared according to a modification from the method by I. Hiles et al., Cell, 70, 419 (1992). Each compound to be assayed was dissolved in DMSO and the obtained 10 mM DMSO solution was serially diluted with DMSO.
The compound (0.5µl) to be assayed and enzyme were mixed in 25µl of buffer solution (40 mM Tris-HCl (pH 7.4), 200 mM NaCl, 2 mM dithiothreitol, 5 mM MgCl2). Then, 25µl of 5 mM Tris-HCl (pH 7.4) buffered solution supplemented with 10µg PI (Sigma), 2µ Ci [γ-^32P] ATP (Amersham Pharmacia) and 80µM nonradiolabeled ATP (Sigma) was added to the mixture to initiate the reaction. After reacting at 37°C for 15 minutes, 200µl of 1M HCl and 400µl of CHCl3 / MeOH (1 : 1) were added to the reaction mixture. The resulting mixture was stirred and then centrifuged. After the organic layer was again extracted twice with 150µl of MeOH / 1M HCl (1 : 1). The radioactivity was measured using Cerenkov light.

Sequence of PI3K (p110α subtype) (P32871 whole entry): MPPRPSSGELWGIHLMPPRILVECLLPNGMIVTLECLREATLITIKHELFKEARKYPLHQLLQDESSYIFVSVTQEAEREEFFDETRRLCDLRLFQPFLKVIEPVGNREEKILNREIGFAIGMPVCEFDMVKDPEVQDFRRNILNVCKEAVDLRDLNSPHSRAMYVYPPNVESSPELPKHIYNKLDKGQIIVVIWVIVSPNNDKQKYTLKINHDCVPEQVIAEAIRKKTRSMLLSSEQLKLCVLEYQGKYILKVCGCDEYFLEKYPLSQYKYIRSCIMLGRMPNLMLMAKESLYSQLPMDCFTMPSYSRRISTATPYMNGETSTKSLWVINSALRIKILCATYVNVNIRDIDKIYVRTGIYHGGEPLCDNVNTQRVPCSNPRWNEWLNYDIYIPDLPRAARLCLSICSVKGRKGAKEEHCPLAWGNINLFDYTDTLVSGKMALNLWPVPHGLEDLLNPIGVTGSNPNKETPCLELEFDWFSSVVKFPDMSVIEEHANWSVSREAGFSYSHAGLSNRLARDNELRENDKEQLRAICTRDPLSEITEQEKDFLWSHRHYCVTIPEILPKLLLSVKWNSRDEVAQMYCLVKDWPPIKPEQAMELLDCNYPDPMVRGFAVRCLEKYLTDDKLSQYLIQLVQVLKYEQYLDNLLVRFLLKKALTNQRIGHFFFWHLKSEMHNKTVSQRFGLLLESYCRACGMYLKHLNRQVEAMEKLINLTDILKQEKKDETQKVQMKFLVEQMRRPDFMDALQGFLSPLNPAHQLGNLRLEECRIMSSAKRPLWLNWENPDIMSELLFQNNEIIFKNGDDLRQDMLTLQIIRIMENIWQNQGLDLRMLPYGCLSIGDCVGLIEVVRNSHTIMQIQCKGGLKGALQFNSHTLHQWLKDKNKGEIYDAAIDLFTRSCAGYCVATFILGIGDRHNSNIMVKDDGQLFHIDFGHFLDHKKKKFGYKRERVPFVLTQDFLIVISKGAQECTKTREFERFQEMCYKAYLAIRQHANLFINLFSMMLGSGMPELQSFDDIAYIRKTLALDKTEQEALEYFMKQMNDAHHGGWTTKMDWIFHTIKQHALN

SMILES	IC50
CC(=O)Nc1cccc(-c2nc(N3CCOCC3)c3oc4ncccc4c3n2)c1 [Co 24]	< 1 µM
O=C(Nc1cccc(-c2nc(N3CCOCC3)c3oc4ncccc4c3n2)c1)c1ccccn1 [Co 10]	< 1 µM
Nc1ccc(C(=O)Nc2cccc(-c3nc(N4CCOCC4)c4oc5ncccc5c4n3)c2)cn1 [Co 17, 6-amino-3'-.(4-morpholinopyrido[3',2':4,5]furo[3,2-d]pyrimidin-2-yl)nicotinanilide]	< 1 µM

system: HCT116 cells; assay: Colon cancer cell growth inhibition (Alamar Blue); assay type: cell-based; conditions: HCT116 colon cancer cell line, incubation over 72 hours; result in words
Experimental: Test Example 2 Colon cancer cell growth inhibition
HCT116 cells from a colon cancer cell line were cultured in McCoy's 5A medium (GIBCO) supplemented with 10% fetal bovine serum. HCT116 cells were inoculated on a 96 well plate (5000 cells/well) followed by overnight incubation. The test compound diluted with the medium was added to the medium in a final concentration of […] (final DMSO concentration, 1%). After incubation over 72 hours, Alamar Blue reagent was added to the medium. Two hours after the addition, a ratio of fluorescent intensity at an excitation wavelength of 530 nm to that at an emission wavelength of 590 nm was measured to determine the IC50. Co 14, Co 24, Co 25, Co 31, Co 46 and Co 47 of the present invention exerted an excellent cancer cell growth inhibition activity.

SMILES	cancer cell growth inhibition activity
CC(=O)Nc1cccc(-c2nc(N3CCOCC3)c3oc4ncccc4c3n2)c1 [Co 24]	excellent

system: A375 cells; assay: Melanoma cell growth inhibition (Alamar Blue); assay type: cell-based; conditions: Homo sapiens, A-375, 46 h
Experimental: A375 cells from a melanoma cell line were cultured in DMEM medium (GIBCO) supplemented with 10% fetal bovine serum. A375 cells at 10,000 cells/100µl were added to a 96 well plate which contained 1µl/well of the test compounds (final concentration of 0.001 - 30µM). After incubation for over 46 hours, Alamar Blue reagent was added to the medium (10µl/well).

SMILES	IC50
Oc1cccc(-c2nc(N3CCOCC3)c3oc4ncccc4c3n2)c1 [Co 50, 3-(4-morpholinopyrido[3',2':4,5]furo[3,2-d]pyrimidin-2-yl)phenol]	0.33 to 4.26 µM

same assay, conditions: Homo sapiens, A-375; A375 melanoma cell line, incubation for over 46 hours, 0.001 - 30µM; range is stated for the group of ten compounds; read-out: IC50

SMILES	IC50
c1cc(OCCN2CCNCC2)cc(-c2nc(N3CCOCC3)c3oc4ncccc4c3n2)c1 [Co 69, 4-morpholino-2-[3-(2-piperazin-1-ylethoxy)phenyl]pyrido[3',2':4,5]furo[3,2-d]pyrimidine]	0.33 to 4.26 µM
Oc1cccc(-c2nc(N3CCOCC3)c3ccncc3n2)c1 [Co 174, 3-(4-morpholinopyrido[3,4-d]pyrimidin-2-yl)phenol]	0.33 to 4.26 µM
COc1ccc2nc(-c3cccc(O)c3)nc(N3CCOCC3)c2c1 [Co 186, 3-(6-methoxy-4-morpholinoquinazolin-2-yl)phenol]	0.33 to 4.26 µM
Oc1cccc(-c2nc(N3CCOCC3)c3sccc3n2)c1 [Co 190, 3-(4-morpholinothieno[3,2-d]pyrimidin-2-yl)phenol]	0.33 to 4.26 µM
Nc1ccc(-c2nc(N3CCOCC3)c3oc4ncccc4c3n2)cc1 [Co 33, 4-(4-morpholinopyrido[3',2':4,5]furo[3,2-d]pyrimidin-2-yl)aniline]	0.33 to 4.26 µM
Oc1cccc(-c2nc(N3CCOCC3)c3ncccc3n2)c1 [Co 172, 3-(4-morpholinopyrido[3,2-d]pyrimidin-2-yl)phenol]	0.33 to 4.26 µM
Oc1cccc(-c2nc(N3CCOCC3)c3cnccc3n2)c1 [Co 164, 3-(4-morpholinopyrido[4,3-d]pyrimidin-2-yl)phenol]	0.33 to 4.26 µM
Oc1cccc(-c2nc(N3CCOCC3)c3nccnc3n2)c1 [Co 191, 3-(4-morpholinopteridin-2-yl)phenol]	0.33 to 4.26 µM
